The values below come from patent US11964943B2, “3,5-diarylidenyl-n-substituted-piperid-4-one-derived inhibitors of Stat3 pathway activity and uses thereof” (priority 2017, dated 2024).

In this experiment the test system is DU145 cells. Kind of experiment: Live cell microscopy. In kind it is cell-based. To be noted: DU145, increasing concentration over 24 h. The method, then: 5×10^4 DU145 cells were seeded in 8-well chamber slides (Ibidi, Martinsried, Germany). After 24 h, cells were treated with the denoted concentration (μM) IE-8 and intracellular drug accumulation was imaged at 3 h intervals on a live cell microscope (Visitron Systems, Puchheim, Germany) using a 40× oil immersion DIC objective and VisiView® software.
LEDs were used for widefield DIC and fluorescence (436/20 nm excitation and 480/40 nm bandpass filter for (CFP) fluorescence illumination (Visitron Systems). Images were taken with a sCMOS 4.2MPxl digital camera.

`COc1cc(/C=C2\CN(c3ccccc3)C/C(=C\c3cc(OC)c(OC)c(OC)c3)C2=O)cc(OC)c1OC` [IE-8, 3,5-Di(3,4,5-trimethoxybenzylidene)-1-phenylpiperidin-4-one]: the cytoplasmic vacuolisation result is reported as “induced cytoplasmic vacuolisation”.
